According to patent US20150112057A1, “NOVEL CRYSTALLINE CEFOPERAZONE INTERMEDIATE” (DSM Sinochem Pharmaceuticals Netherlands B.V., priority 2011, published 2015):

Columns and labels:
[1] = Chemical degradation of 7-TMCA to 5-mercapto-1-methyltetrazole during dissolution and enzymatic condensation; format: physicochemical; conditions: during the dissolution step, titration with aqueous NaOH 5M
Experimental: (§1) The reactions were followed by quantitative HPLC analysis. The retention factors of 7-TMCA, HPGM, HPG and 5-mercapto-1-methyltetrazole were calculated using standards; the retention factor of D-7-(4-hydroxyphenylacetamido)-3-(1-methyl-1H-tetrazol-5-yl)thiomethylcephem-4-carboxylic acid was deducted based on mass balance in the first experiments and subsequently calculated using standard; the retention factor of cefatrizine was deducted on mass balance.
7-Amino-3-(1-methyl-1H-tetrazol-5-ylthiomethyl)-3-cephem-4-carboxylic acid (7-TMCA; 5 g) was added to distilled water (38 g) and cooled to 3° C. The mixture was stirred at 400 rpm and the pH was brought to 9.0 with aqueous NaOH (5M) whereafter the remainder of the reaction was carried out at pH 8.8. After 60-80 min, the suspension was filtered. The filtrate, containing 4.1 g of 7-TMCA, was place back in the reactor and immobilized penicillin G acylase mutant 1 (3.5 g, see Materials and Methods) was added and to the resulting mixture a solution of D-4-hydroxyphenylglycine methylester (HPGM) was dropped at speed of 7 mL/h by a syringe pump (dosing time 2 h). This solution was prepared by dissolving HPGM (4.0 g, 1.7 equiv.) in water (6.4 g) and H2SO4 25% (4.25 g in water). The enzymatic reaction was followed by analytical HPLC (see Materials and Methods) and stopped at the end of HPGM addition, by enzyme filtration. […]

[2] = Chemical hydrolysis of HPGM to HPG (chemical blank, no enzyme); format: physicochemical; conditions: water pH 8.7, 2° C.
Experimental: as §1
During the enzymatic condensation of 7-TMCA and HPGM the latter compound was hydrolyzed to HPG. […] Two reactions were started in parallel at 2° C. […] In one of the reactors immobilized penicillin G acylase mutant 1 (5 g) was added and the two reactions were monitored by analytical HPLC.

[3] = biological target: T1, immobilized penicillin G acylase mutant 1 (Escherichia coli, UniProt P06875, F313A/F749L/S29L/V218E/V437L); test: Enzymatic hydrolysis of HPGM to HPG; format: biochemical; conditions: water pH 8.7, 2° C., immobilized penicillin G acylase mutant 1 (5 g)
T1 construct: mutations V11A, A:S3L, A:V192E, B:F24A, B:V148L and B:F460L; made in house
From the text: The production, isolation and purification of wild type and mutant penicillin G acylases may be carried out as described in WO 1996/005318 and WO 2003/055998. Alternatively, genes encoding mutant penicillin G acylases may be obtained by gene synthesis. Production of the mutant penicillin G acylase was achieved by cloning the genes encoding mutant penicillin G acylases into an appropriate expression vector, transforming a suitable host such as Escherichia coli with said vector and culturing the transformed host under conditions suitable for the production of the mutant penicillin G acylases and recovery and purification of the mutants was carried out as described in WO 2010/072765. […]
as §1
During the enzymatic condensation of 7-TMCA and HPGM the latter compound was hydrolyzed to HPG. […] In one of the reactors immobilized penicillin G acylase mutant 1 (5 g) was added and the two reactions were monitored by analytical HPLC.

amount of 5-mercapto-1-methyltetrazole (degradation product of 7-TMCA) [1]	Structure (SMILES)	HPGM hydrolyzed in the chemical blank ([2]; 20 h) [%]	formation of HPG from HPGM in the chemical blank ([2]; within 2 h)	time to complete conversion of HPGM to HPG by the enzyme [3] [min]
not detectable	Cn1nnnc1SCC1=C(C(=O)O)N2C(=O)[C@@H](N)[C@H]2SC1 [Example 7-TMCA, 7-amino-3-(1-methyl-1H-tetrazol-5-ylthiomethyl)-3-cephem-4-carboxylic acid]			
	COC(=O)[C@H](N)c1ccc(O)cc1 [HPGM, D-4-hydroxyphenylglycine methylester]	9	no HPG was recorded	≤ 5
